Source: patent US20120088791A1, “AMIDOBIPIPERIDINECARBOXYLATE M1 ALLOSTERIC AGONISTS, ANALOGS AND DERIVATIVES THEREOF, AND METHODS OF MAKING AND USING SAME” (VANDERBILT UNIVERSITY, priority 2009, published 2012)
Read-outs that look alike come from different tables or passages of the source.

Target: T1, rM1 (Rattus norvegicus, UniProt P08482)
T1 construct: host or cells: CHO-K1
T1 sequence (P08482 1-460): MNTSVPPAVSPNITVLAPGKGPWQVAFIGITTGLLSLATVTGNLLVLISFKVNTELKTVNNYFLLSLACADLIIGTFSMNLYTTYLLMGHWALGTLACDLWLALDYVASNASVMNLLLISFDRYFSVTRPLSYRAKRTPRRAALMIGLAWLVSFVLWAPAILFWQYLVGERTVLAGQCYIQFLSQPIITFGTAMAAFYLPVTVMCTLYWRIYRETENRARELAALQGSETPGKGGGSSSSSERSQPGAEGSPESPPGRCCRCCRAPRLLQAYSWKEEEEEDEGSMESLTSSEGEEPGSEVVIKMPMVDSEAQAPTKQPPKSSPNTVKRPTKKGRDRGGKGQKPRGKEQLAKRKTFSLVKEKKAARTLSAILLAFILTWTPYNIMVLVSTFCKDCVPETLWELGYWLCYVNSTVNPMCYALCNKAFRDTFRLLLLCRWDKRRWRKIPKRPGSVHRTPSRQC
Test: Calcium mobilization assay, CHO-K1 cells stably expressing rM1
Format: cell-based
Conditions: for Emax: RM1, read-out: Efficacy (% Max ACh); for EC50: read-out: Potency (EC50)
Text: Cell culture and transfections. Chinese hamster ovary (CHO-K1) cells stably expressing rat (r)M1 were purchased from the American Type Culture Collection and cultured according to their indicated protocol. CHO cells stably expressing human (h)M2, hM3, and hM5 were used and described previously (Levey et al., 1991); rM4 cDNA, provided by T. I. Bonner (National Institutes of Health, Bethesda, Md.), was used to stably transfect CHO-K1 cells purchased from the American Type Culture Collection using Lipofectamine2000. To make stable hM2 and rM4 cell lines for use in calcium mobilization assays, these cells also were stably transfected with a chimeric G-protein (Gqi5) using Lipofectamine 2000. M1, hM3, and hM5 cells were grown in Ham's F-12 medium containing 10% heat-inactivated fetal bovine serum (FBS), 20 mM HEPES, and 50 μg/ml G418 sulfate. hM2-Gqi5 cells were grown in the same medium also containing 500 μg/ml Hygromycin B. Stable rM4-Gqi5 cells were grown in DMEM containing 10% heat-inactivated FBS, 20 mM HEPES, 400 μg/ml G418 sulfate, and 500 μg/ml Hygromycin B. The rat M1 Y381A orthosteric mutant receptor cDNA was generated using the Quik-Change site-directed mutagenesis kit (Stratagene) and verified by sequencing. CHO-K1 cells were stably transfected with this cDNA using Lipofectamine2000 and screened for expression based on calcium mobilization in response to the allosteric M1 agonist N-desmethylclozapine.
Calcium mobilization assays. For measurement of agonist-evoked increases in intracellular calcium, CHO-K1 cells stably expressing muscarinic receptors were plated in 100 μl of growth medium at 5×10^4 (rM1, hM3, and hM5) or 6×10^4 cells per well (rM1 Y381A, hM2, and rM4) in Costar 96-well black-walled, tissue culture (TC)-treated, clear-bottom plates (Fisher). Cells were incubated overnight at 37° C. and 5% CO2. The next day, medium was removed from the cells, and they were incubated with 50 μl of 2 μM Fluo-4 AM diluted in assay buffer [HBSS (Invitrogen) supplemented with 20 mM HEPES and 2.5 mM probenecid, pH 7.4] for 1 h at 37° C. Dye was removed and replaced with 45 μl of assay buffer. Agonists were diluted into assay buffer at a 2× concentration and applied to cells using the automated system at 19 s into the 130 s protocol. Calcium flux was measured over time as an increase in fluorescence (fold over basal) using the Flexstation plate reader (Molecular Devices).

[1] = Table 1, R-enantiomers, agonist-evoked calcium flux

Emax (Table 1, R-enantiomers) [%]	EC50 [1] [nM]	EC50 (Table 2, S-enantiomers) [nM]	Structure (SMILES)
92	144	–	CCOC(=O)N1CCC(N2CCC[C@@H](NC(=O)c3cccc(F)c3)C2)CC1 [(R)-ethyl 3-(3-fluorobenzamido)-1,4′-bipiperidine-1′-carboxylate]
44	685	–	CCOC(=O)N1CCC(N2CCC[C@@H](NC(=O)C3CCCCC3)C2)CC1 [(R)-ethyl 3-(cyclohexanecarboxamido)-1,4′-bipiperidine-1′-carboxylate]
–	–	> 10000	CCOC(=O)N1CCC(N2CCC[C@H](NC(=O)c3cccc(F)c3)C2)CC1 [(S)-ethyl 3-(3-fluorobenzamido)-1,4′-bipiperidine-1′-carboxylate]
–	–	> 10000	CCOC(=O)N1CCC(N2CCC[C@H](NC(=O)c3ccc(C)cc3)C2)CC1 [(S)-ethyl 3-(4-methylbenzamido)-1,4′-bipiperidine-1′-carboxylate]
–	–	> 10000	CCOC(=O)N1CCC(N2CCC[C@H](NC(=O)c3cccc(OC)c3)C2)CC1 [(S)-ethyl 3-(3-methoxybenzamido)-1,4′-bipiperidine-1′-carboxylate]
–	–	> 10000	CCOC(=O)N1CCC(N2CCC[C@H](NC(=O)C3CCCCC3)C2)CC1 [(S)-ethyl 3-(cyclohexanecarboxamido)-1,4′-bipiperidine-1′-carboxylate]
57	2600	–	CCOC(=O)N1CCC(N2CCC[C@@H](NC(=O)c3ccccc3Cl)C2)CC1 [(R)-ethyl 3-(2-chlorobenzamido)-1,4′-bipiperidine-1′-carboxylate]
–	–	> 10000	CCOC(=O)N1CCC(N2CCC[C@H](NC(=O)c3ccccc3Cl)C2)CC1 [(S)-ethyl 3-(2-chlorobenzamido)-1,4′-bipiperidine-1′-carboxylate]
77	59	–	CCOC(=O)N1CCC(N2CCC[C@@H](NC(=O)c3ccc(F)cc3C)C2)CC1 [(R)-ethyl 3-(4-fluoro-2-methylbenzamido)-1,4′-bipiperidine-1′-carboxylate]
35	5300	–	CCOC(=O)N1CCC(N2CCC[C@@H](NC(=O)C3CCCC3)C2)CC1 [(R)-ethyl 3-(cyclopentanecarboxamido)-1,4′-bipiperidine-1′-carboxylate]
63	963	–	CCOC(=O)N1CCC(N2CCC[C@@H](NC(=O)c3ccc(OC)cc3)C2)CC1 [(R)-ethyl 3-(4-methoxybenzamido)-1,4′-bipiperidine-1′-carboxylate]

Continued, molecule first:

Structure (SMILES)	Emax (Table 1, R-enantiomers) [%]	EC50 [1] [nM]	EC50 (Table 2, S-enantiomers) [nM]
CCOC(=O)N1CCC(N2CCC[C@@H](NC(=O)c3ccc(F)c(F)c3)C2)CC1 [(R)-ethyl 3-(3,4-difluorobenzamido)-1,4′-bipiperidine-1′-carboxylate]	84	309	–
CCOC(=O)N1CCC(N2CCC[C@H](NC(=O)c3ccc(F)c(F)c3)C2)CC1 [(S)-ethyl 3-(3,4-difluorobenzarnido)-1,4′-bipiperidine-1′-carboxylate]	–	–	> 10000
CCOC(=O)N1CCC(N2CCC[C@H](NC(=O)C3CCCC3)C2)CC1 [(S)-ethyl 3-(cyclopentanecarboxamido)-1,4′-bipiperidine-1′-carboxylate]	–	–	> 10000
CCOC(=O)N1CCC(N2CCC[C@@H](NC(=O)c3cccc(OC)c3)C2)CC1 [(R)-ethyl 3-(3-methoxybenzamido)-1,4′-bipiperidine-1′-carboxylate]	91	245	–
CCOC(=O)N1CCC(N2CCC[C@@H](NC(=O)c3ccc(C)cc3)C2)CC1 [(R)-ethyl 3-(4-methylbenzamido)-1,4′-bipiperidine-1′-carboxylate]	14	819	–
CCOC(=O)N1CCC(N2CCC[C@@H](NC(=O)c3cccs3)C2)CC1 [(R)-ethyl 3-(thiophene-2-carboxamido)-1,4′-bipiperidine-1′-carboxylate]	61	1300	–
CCOC(=O)N1CCC(N2CCC[C@H](NC(=O)c3cccs3)C2)CC1 [(S)-ethyl 3-(thiophene-2-carboxamido)-1,4′-bipiperidine-1′-carboxylate]	–	–	> 10000
CCOC(=O)N1CCC(N2CCC[C@H](NC(=O)c3ccc(F)cc3C)C2)CC1 [(S)-ethyl 3-(4-fluoro-2-methylbenzamido)-1,4′-bipiperidine-1′-carboxylate]	–	–	> 10000
CCOC(=O)N1CCC(N2CCC[C@H](NC(=O)c3ccccc3)C2)CC1 [(S)-ethyl 3-benzamido-1,4′-bipiperidine-1′-carboxylate]	–	–	> 10000
CCOC(=O)N1CCC(N2CCC[C@H](NC(=O)c3ccc(OC)cc3)C2)CC1 [(S)-ethyl 3-(4-methoxybenzamido)-1,4′-bipiperidine-1′-carboxylate]	–	–	> 10000
CCOC(=O)N1CCC(N2CCC[C@H](NC(=O)c3ccccc3C)C2)CC1 [(S)-ethyl 3-(2-methylbenzamido)-1,4′-bipiperidine-1′-carboxylate]	–	–	> 10000
